# According to BindingDB's records for doi:10.7270/Q2P26WJQ (The Scripps Research Institute Molecular Screening Center, 2009):
# Molecular target: Transitional endoplasmic reticulum ATPase (Homo sapiens, UniProt P55072)
# Test: p97 ATPase inhibitors, dose response, biochemical (AID 1534)
# Chain of Transitional endoplasmic reticulum ATPase (P55072 whole entry): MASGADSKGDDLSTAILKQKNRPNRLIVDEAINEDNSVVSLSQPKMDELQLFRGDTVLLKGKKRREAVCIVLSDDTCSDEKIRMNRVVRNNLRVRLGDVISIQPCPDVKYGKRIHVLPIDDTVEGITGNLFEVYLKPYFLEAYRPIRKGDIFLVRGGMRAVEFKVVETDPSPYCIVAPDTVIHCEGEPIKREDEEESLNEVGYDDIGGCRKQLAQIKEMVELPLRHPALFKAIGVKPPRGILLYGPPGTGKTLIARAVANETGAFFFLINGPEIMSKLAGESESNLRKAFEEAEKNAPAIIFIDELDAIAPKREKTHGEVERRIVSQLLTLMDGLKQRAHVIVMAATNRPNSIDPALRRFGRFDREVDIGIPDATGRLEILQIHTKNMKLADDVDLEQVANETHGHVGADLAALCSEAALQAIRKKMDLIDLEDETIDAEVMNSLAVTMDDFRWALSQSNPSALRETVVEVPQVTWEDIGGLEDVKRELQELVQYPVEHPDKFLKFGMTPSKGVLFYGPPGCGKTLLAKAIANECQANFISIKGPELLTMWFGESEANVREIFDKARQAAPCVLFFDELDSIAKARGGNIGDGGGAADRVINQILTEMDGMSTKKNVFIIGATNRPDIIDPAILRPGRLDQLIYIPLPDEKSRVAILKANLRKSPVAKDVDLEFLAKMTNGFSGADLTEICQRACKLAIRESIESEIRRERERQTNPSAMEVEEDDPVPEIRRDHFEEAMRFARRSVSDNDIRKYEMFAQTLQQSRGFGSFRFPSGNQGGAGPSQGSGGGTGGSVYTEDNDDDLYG
row,Compound,IC50 [µM]
1,"NS(=O)(=O)c1ccc(N=NCc2ccc(O)c(O)c2O)c([N+](=O)[O-])c1 [4-[[(E)-(2,3-dihydroxy-4-oxo-1-cyclohexa-2,5-dienylidene)methyl]hydrazo]-3-nitrobenzenesulfonamide]",> 50
2,"On1[o+]nc2c1CCc1nc(-c3ccccc3)[n-]c1-2 [3-oxidanidyl-7-phenyl-4,5-dihydro-1H-imidazo[4,5-g][2,1,3]benzoxadiazol-3-ium]",> 50
3,"COc1ccc(CN=Nc2nnc(-c3ccccc3)c(=O)[nH]2)cc1 [4-methoxybenzaldehyde (5-oxo-6-phenyl-4,5-dihydro-1,2,4-triazin-3-yl)hydrazone]",> 50
4,"CN(C)[C@@H]1C(=O)C(C(N)=O)C(=O)[C@@]2(O)C(=O)C3C(=O)c4c(O)cccc4[C@@](C)(O)[C@H]3[C@H](O)[C@@H]12 (stereo partly drawn) [(2E,4S,4aR,5S,5aR,6S,12aS)-2-[azanyl(oxidanyl)methylidene]-4-(dimethylamino)-6-methyl-5,6,10,11,12a-pentakis(oxidanyl)-4,4a,5,5a-tetrahydrotetracene-1,3,12-trione]",> 50

# Further lines, results first:
row,IC50 [µM],Compound
1,> 50,Cc1ccc(C)c(SCC(=O)OCC(=O)C(C#N)c2nc3ccccc3[nH]2)c1 (configuration not stated) [MLS000392255]
2,36.5,"Oc1ccc(CN=Nc2ccnc3cc(Cl)ccc23)cc1O [(4Z)-4-[[2-(7-chloroquinolin-4-yl)hydrazinyl]methylidene]-2-hydroxycyclohexa-2,5-dien-1-one]"
3,> 50,"Cc1ccc(SCC(=O)C(C#N)c2nc3ccccc3s2)cc1 (configuration not stated) [(2Z)-2-(3H-1,3-benzothiazol-2-ylidene)-3-keto-4-(p-tolylthio)butyronitrile]"
